A short description of assay [1]: E. coli strain growth, wild-type against h24 humanized mutant – h24 mutant GFP vs wild-type RFP, cherry-pick, dose response (AID 977629). The settings on record: E. coli WT-RFP / h24-humanized GFP mixed culture, 24 h; at 50 µM (top of the series).
The test system of assay [2] is E. coli WT-RFP / h24-humanized GFP mixed culture, 24 h. The assay is described as above.
Where [3] appears, read: measured here: h24 humanized mutant GFP signal.
The mark [4] stands for this setting: measured here: total growth OD600.

Each structure is given as a SMILES string. Inconclusive results are not listed. Active and inactive are the calls of the source.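 The calls were made as follows: active = drop in red signal of normal-ribosome bacteria at least twice that in human-like-ribosome bacteria, growth inhibited under 30%; inactive = the rest, inconclusive results apart.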

In the case of `O=C(O)c1cc([N+](=O)[O-])ccc1NCc1ccccc1`, the activity change, negative = inhibition in assay [1] is -0.454 (inactive). Further, the figures for the AC50 in assay [2] (setting [3]) and in assay [2] (setting [4]) were above 100 µM and 5.79 µM, respectively.
For `COc1ccc2[nH]c3c(=O)n(CCCCC(=O)NCCC(C)C)c(=S)[nH]c3c2c1`, the activity change, negative = inhibition in assay [1] is 64.3 (inactive).
Take `C[C@@H]1CCCCO[C@H](CN(C)C(=O)CCCN(C)C)[C@H](C)CN([C@@H](C)CO)C(=O)c2cc(NC(=O)Nc3cccc4ccccc34)ccc2O1`: the activity change, negative = inhibition in assay [1] is 101 (inactive). In assay [2] (setting [4]), the AC50 (in general, the midpoint of the concentration-response curve, whichever way the signal moves) was above 100 µM.
In the case of `Cc1ccc(C)c(NC(=O)CSc2nc3nc(-c4cccs4)cc(C(F)(F)F)c3c(=O)[nH]2)c1`, the activity change, negative = inhibition in assay [1] is 52.6 (inactive). In addition, the AC50 worked out at 31.6 µM in assay [2] (setting [3]) and 20.1 µM in assay [2] (setting [4]).
With `COc1ccc(Cn2c(-c3ccc(Cl)cc3)c[n+]3ccccc23)cc1`, in assay [1], the activity change, negative = inhibition is 21 (inactive).
As to `Cc1noc(C)c1NC(=O)Nc1ccc2c(c1)C(=O)N([C@H](C)CO)C[C@@H](C)[C@@H](CN(C)C(=O)Nc1ccc3c(c1)OCO3)OCCCC[C@@H](C)O2`, the activity change, negative = inhibition in assay [1] is 86.8 (inactive).
With `CCN(CC)CCn1c2ccccc2c2nc3ccc([N+](=O)[O-])cc3cc21`, the activity change, negative = inhibition in assay [1] was 21.8 (inactive). For the same molecule, the results for the AC50 in assay [2] (setting [3]) and in assay [2] (setting [4]) were 6.47 µM and 7.41 µM, respectively.
Turning to `COc1ccc(-n2cc(-c3ccccc3)c3c(N4CCOCC4)ncnc32)cc1`, the activity change, negative = inhibition in assay [1] is 12.7 (inactive). The molecule also returned an AC50 in assay [2] (setting [4]) of 27.8 µM.
As to `COC(=O)c1c(NC(=O)CCC(=O)O)sc(Cc2ccccc2)c1C`, the figures for the AC50 in assay [2] and in assay [2] (setting [4]) were > 100 µM (inactive) and 30 µM, respectively.

The record behind these values is PubChem BioAssay AID977629 (Broad Institute, 2014).
